# Literature values, collected in patent US12582665B2, “Topical composition” (FUTURA MEDICAL DEVELOPMENTS LIMITED, priority 2020, dated 2026).
# Assays:
# [1] = not given; remark: listed apart in the source
smiles,measurement,setting,value
"C=C(C)[C@@H]1CCC(C)=C[C@H]1c1c(O)cc(CCCCC)cc1O [CBD, cannabidiol]",log P,,~+6.00
same,Solubility in propylene glycol,[1],exceeding 10 % w/w
